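The compound was tested at five concentrations on cells cultured in 96-well plates, with a 48-hour exposure period. The concentration for 50% growth inhibition is given as GI50. TGI marks complete inhibition of growth.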
Legend:
Test in all cases: NCI anticancer screen, dose series, 48 h
SF-539 CNS = system: SF-539 CNS
HCC-2998 colon = system: HCC-2998 colon
OVCAR-4 ovarian = system: OVCAR-4 ovarian
IGROV1 ovarian = system: IGROV1 ovarian
MDA-MB-231 breast = system: MDA-MB-231 breast
MALME-3M melanoma = system: MALME-3M melanoma
BT-549 breast = system: BT-549 breast
SK-OV-3 ovarian = system: SK-OV-3 ovarian
UACC-62 melanoma = system: UACC-62 melanoma
NCI-H23 lung = system: NCI-H23 lung
CAKI-1 renal = system: CAKI-1 renal
COLO 205 colon = system: COLO 205 colon
SNB-19 CNS = system: SNB-19 CNS
NCI-H226 lung = system: NCI-H226 lung
NCI-H522 lung = system: NCI-H522 lung
A549 NSCLC = system: A549 NSCLC
SK-MEL-28 melanoma = system: SK-MEL-28 melanoma
OVCAR-5 ovarian = system: OVCAR-5 ovarian
EKVX NSCLC = system: EKVX NSCLC
786-0 renal = system: 786-0 renal
HT29 colon = system: HT29 colon
SN12C renal = system: SN12C renal
U251 CNS = system: U251 CNS
SW-620 colon = system: SW-620 colon
SK-MEL-2 melanoma = system: SK-MEL-2 melanoma
HCT-15 colon = system: HCT-15 colon
RXF 393 renal = system: RXF 393 renal

COC(=O)N1CCN(CCNCc2ccc(NC(=O)c3ccc(C)c(C#Cc4cnc5cccnn45)c3)cc2C(F)(F)F)CC1
GI50 (SF-539 CNS): 1.4 µM
TGI (SF-539 CNS): 2.78 µM
GI50 (HCC-2998 colon): 1.48 µM
TGI (HCC-2998 colon): 2.86 µM
GI50 (OVCAR-4 ovarian): 1.93 µM
TGI (OVCAR-4 ovarian): 5.86 µM
GI50 (IGROV1 ovarian): 1.41 µM
TGI (IGROV1 ovarian): 3.43 µM
GI50 (MDA-MB-231 breast): 1.26 µM
TGI (MDA-MB-231 breast): 3.25 µM
GI50 (MALME-3M melanoma): 0.893 µM
TGI (MALME-3M melanoma): 2.41 µM
GI50 (BT-549 breast): 2.4 µM
TGI (BT-549 breast): 4.95 µM
GI50 (SK-OV-3 ovarian): 2.07 µM
TGI (SK-OV-3 ovarian): 3.85 µM
GI50 (UACC-62 melanoma): 1.43 µM
TGI (UACC-62 melanoma): 3.04 µM
GI50 (NCI-H23 lung): 1.17 µM
TGI (NCI-H23 lung): 2.88 µM
GI50 (CAKI-1 renal): 1.89 µM
TGI (CAKI-1 renal): 4.71 µM
GI50 (COLO 205 colon): 1.19 µM
TGI (COLO 205 colon): 2.79 µM
GI50 (SNB-19 CNS): 2.53 µM
TGI (SNB-19 CNS): 5.89 µM
GI50 (NCI-H226 lung): 1.39 µM
TGI (NCI-H226 lung): 5.32 µM
GI50 (NCI-H522 lung): 1.51 µM
TGI (NCI-H522 lung): 3.23 µM
GI50 (A549 NSCLC): 1.69 µM
TGI (A549 NSCLC): 4.21 µM
GI50 (SK-MEL-28 melanoma): 1.48 µM
TGI (SK-MEL-28 melanoma): 2.89 µM
GI50 (OVCAR-5 ovarian): 1.39 µM
TGI (OVCAR-5 ovarian): 3.97 µM
GI50 (EKVX NSCLC): 2.04 µM
TGI (EKVX NSCLC): 4.39 µM
GI50 (786-0 renal): 1.45 µM
TGI (786-0 renal): 3.54 µM
GI50 (HT29 colon): 0.769 µM
TGI (HT29 colon): 2.32 µM
GI50 (SN12C renal): 1.68 µM
TGI (SN12C renal): 4.08 µM
GI50 (U251 CNS): 1.53 µM
TGI (U251 CNS): 3.32 µM
GI50 (SW-620 colon): 1.32 µM
TGI (SW-620 colon): 3.41 µM
GI50 (SK-MEL-2 melanoma): 1.15 µM
TGI (SK-MEL-2 melanoma): 2.8 µM
GI50 (HCT-15 colon): 1.1 µM
TGI (HCT-15 colon): 3.07 µM
GI50 (RXF 393 renal): 1.73 µM
